Experiments:
Assay type in all cases: in vivo
[1] = test system: ivy-leaved morning glory (Ipomoea hederacea, IPOHE); assay: Test A pre-emergence, ivy-leaved morning glory; conditions: after 13 d
Procedure, shortened: (§1)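 Values are percent plant damage 13 d after a pre-emergence spray (15.625, 62.5 or 250 g/ha; acetone/water with 0.5% Tween 20) applied to pots one day post-sowing, under glasshouse conditions of 24/16° C. and twice-daily watering.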

[2] = test system: redroot pigweed (Amaranthus retroflexus, AMARE); assay: Test A pre-emergence, redroot pigweed; conditions: after 13 d
Procedure, shortened: as §1

[3] = test system: redroot pigweed (Amaranthus retroflexus, AMARE); assay: Test A post-emergence, redroot pigweed; conditions: after 13 d
Procedure, shortened: (§2)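 Visual damage rating (0 no damage to 100 total damage) was made 13 d after spraying. The spray was 15.625, 62.5 or 250 g/ha in 50:50 acetone/water with 0.5% Tween 20, applied to 8-day-old glasshouse plants kept at 24/16° C, 14 h light and 65% humidity.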

[4] = test system: velvetleaf (Abutilon theophrasti, ABUTH); assay: Test A post-emergence, velvetleaf; conditions: after 13 d
Procedure, shortened: as §2

plants = assay: Test D post-emergence, other plants of Tables D2 and D4; conditions: post-emergence
Procedure, shortened: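 Seeds treated with herbicide safener; sown in soil; glasshouse, 16 h light, 65% humidity. Sprayed day 1 (pre) or ~day 12 (post). Spray in 0.2% v/v adjuvant. Scored 0–100 damage: 20 DAA pre, 15 d post.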

CCn1nc([C@H]2CN(C)C(=O)[C@@H]2C(=O)Nc2cccc(F)c2F)c2cc(F)ccc21 [Compound 8]
damage to plant (100=total damage; 0=no damage) IPOHE ([1]; Pre-Emergence at 15.625 g/ha): 20 | damage to plant (100=total damage; 0=no damage) IPOHE ([1]; Pre-Emergence at 62.5 g/ha): 20 | damage to plant (100=total damage; 0=no damage) IPOHE ([1]; Pre-Emergence at 250 g/ha): 20 | damage to plant (100=total damage; 0=no damage) AMARE ([2]; Pre-Emergence at 15.625 g/ha): 0 | damage to plant (100=total damage; 0=no damage) AMARE ([2]; Pre-Emergence at 62.5 g/ha): 0 | damage to plant (100=total damage; 0=no damage) AMARE ([2]; Pre-Emergence at 250 g/ha): 0 | damage to plant (100=total damage; 0=no damage) AMARE ([3]; Post-Emergence at 15.625 g/ha): 0 | damage to plant (100=total damage; 0=no damage) AMARE ([3]; Post-Emergence at 62.5 g/ha): 0 | damage to plant (100=total damage; 0=no damage) AMARE ([3]; Post-Emergence at 250 g/ha): 0 | damage to plant (100=total damage; 0=no damage) ABUTH ([4]; Post-Emergence at 15.625 g/ha): 0 | damage to plant (100=total damage; 0=no damage) ABUTH ([4]; Post-Emergence at 62.5 g/ha): 0 | damage to plant (100=total damage; 0=no damage) ABUTH ([4]; Post-Emergence at 250 g/ha): 0 | damage to plant (100=total damage to plant; 0=no damage to plant), ABUTH (plants; rate 130, evaluated after 15 d): 0 | damage to plant (100=total damage to plant; 0=no damage to plant), ABUTH (plants; rate 250, evaluated after 15 d): 0 | damage to plant (100=total damage to plant; 0=no damage to plant), ABUTH (plants; rate 500, evaluated after 15 d): 0 | damage to plant (100=total damage to plant; 0=no damage to plant), AMARE (plants; rate 130, evaluated after 15 d): 0 | damage to plant (100=total damage to plant; 0=no damage to plant), AMARE (plants; rate 250, evaluated after 15 d): 0 | damage to plant (100=total damage to plant; 0=no damage to plant), AMARE (plants; rate 500, evaluated after 15 d): 0 | damage to plant (100=total damage to plant; 0=no damage to plant), BIDPI (plants; rate 130, evaluated after 15 d): 0 | damage to plant (100=total damage to plant; 0=no damage to plant), BIDPI (plants; rate 250, evaluated after 15 d): 0 | damage to plant (100=total damage to plant; 0=no damage to plant), BIDPI (plants; rate 500, evaluated after 15 d): 0 | damage to plant (100=total damage to plant; 0=no damage to plant), BRAPL (plants; rate 130, evaluated after 15 d): 10 | damage to plant (100=total damage to plant; 0=no damage to plant), BRAPL (plants; rate 250, evaluated after 15 d): 70 | damage to plant (100=total damage to plant; 0=no damage to plant), BRAPL (plants; rate 500, evaluated after 15 d): 70 | damage to plant (100=total damage to plant; 0=no damage to plant), CYPES (plants; rate 130, evaluated after 15 d): 0 | damage to plant (100=total damage to plant; 0=no damage to plant), CYPES (plants; rate 250, evaluated after 15 d): 0 | damage to plant (100=total damage to plant; 0=no damage to plant), CYPES (plants; rate 500, evaluated after 15 d): 0 | damage to plant (100=total damage to plant; 0=no damage to plant), DIGSA (plants; rate 130, evaluated after 15 d): 0 | damage to plant (100=total damage to plant; 0=no damage to plant), DIGSA (plants; rate 250, evaluated after 15 d): 80 | damage to plant (100=total damage to plant; 0=no damage to plant), DIGSA (plants; rate 500, evaluated after 15 d): 80 | damage to plant (100=total damage to plant; 0=no damage to plant), ECHCG (plants; rate 130, evaluated after 15 d): 0 | damage to plant (100=total damage to plant; 0=no damage to plant), ECHCG (plants; rate 250, evaluated after 15 d): 80 | damage to plant (100=total damage to plant; 0=no damage to plant), ECHCG (plants; rate 500, evaluated after 15 d): 80 | damage to plant (100=total damage to plant; 0=no damage to plant), EPHHL (plants; rate 250, evaluated after 15 d): 30 | damage to plant (100=total damage to plant; 0=no damage to plant), EPHHL (plants; rate 500, evaluated after 15 d): 20 | damage to plant (100=total damage to plant; 0=no damage to plant), GLXMA (plants; rate 130, evaluated after 15 d): 0 | damage to plant (100=total damage to plant; 0=no damage to plant), GLXMA (plants; rate 250, evaluated after 15 d): 0 | damage to plant (100=total damage to plant; 0=no damage to plant), GLXMA (plants; rate 500, evaluated after 15 d): 0 | damage to plant (100=total damage to plant; 0=no damage to plant), IPOHE (plants; rate 130, evaluated after 15 d): 0 | damage to plant (100=total damage to plant; 0=no damage to plant), IPOHE (plants; rate 250, evaluated after 15 d): 0 | damage to plant (100=total damage to plant; 0=no damage to plant), IPOHE (plants; rate 500, evaluated after 15 d): 0 | damage to plant (100=total damage to plant; 0=no damage to plant), ORYSA (plants; rate 130, evaluated after 15 d): 0 | damage to plant (100=total damage to plant; 0=no damage to plant), ORYSA (plants; rate 250, evaluated after 15 d): 0 | damage to plant (100=total damage to plant; 0=no damage to plant), ORYSA (plants; rate 500, evaluated after 15 d): 10 | damage to plant (100=total damage to plant; 0=no damage to plant), PANMI (plants; rate 130, evaluated after 15 d): 0 | damage to plant (100=total damage to plant; 0=no damage to plant), PANMI (plants; rate 250, evaluated after 15 d): 0 | damage to plant (100=total damage to plant; 0=no damage to plant), PANMI (plants; rate 500, evaluated after 15 d): 0 | damage to plant (100=total damage to plant; 0=no damage to plant), SETFA (plants; rate 130, evaluated after 15 d): 0 | damage to plant (100=total damage to plant; 0=no damage to plant), SETFA (plants; rate 250, evaluated after 15 d): 60 | damage to plant (100=total damage to plant; 0=no damage to plant), SETFA (plants; rate 500, evaluated after 15 d): 80 | damage to plant (100=total damage to plant; 0=no damage to plant), SIDSP (plants; rate 130, evaluated after 15 d): 0 | damage to plant (100=total damage to plant; 0=no damage to plant), SIDSP (plants; rate 250, evaluated after 15 d): 0 | damage to plant (100=total damage to plant; 0=no damage to plant), SIDSP (plants; rate 500, evaluated after 15 d): 10 | damage to plant (100=total damage to plant; 0=no damage to plant), SORVU (plants; rate 130, evaluated after 15 d): 0 | damage to plant (100=total damage to plant; 0=no damage to plant), SORVU (plants; rate 250, evaluated after 15 d): 0 | damage to plant (100=total damage to plant; 0=no damage to plant), SORVU (plants; rate 500, evaluated after 15 d): 0
